Source: publication PMC5462101 (Future medicinal chemistry, 2015)

What was measured:
[1] = tested on: rat model of colitis; test: Acetic acid-induced colitis in the rat; format: in vivo, Fisher 344 rats; conditions: 0.01 mmol/kg intrarectally, 4% acetic acid
Description: LOX has also been associated with inflammation and ulcerative colitis. In the present study, a model for colitis involving intracolonic administration of aqueous 4% acetic acid in the rat was used, leading to acute inflammatory reaction. Treated rats presented partial to diffuse petechial bleeding, single erosion and limited ulceration indicating an overall healing effect of the compounds. Substituted pteridines presenting a satisfactory combination of activities 5a, 18a, 18d and 18f were tested using this in vivo model characterized by diffuse exfoliated mucosa as well as multiple and extended erosion and ulcers of the colon (Table 3). No mortality was encountered.
Fisher 344 rats (150-200 g) were housed in wire-mesh cages, given standard laboratory chow and tap water ad libitum and acclimatized for one week before experiments. Rats were randomly assigned to experimental groups. All in vivo experiments conform to the law for the protection of experimental animals (Republic of Greece) and are registered at the Veterinary Administration of the Republic of Greece in accordance with recognized guidelines on animal experimentation including Directive 2010/63/EU.
Induction of colitis
Rats were anesthetized using pentobarbital (50 mg/kg ip) prior to administration with 1 mL of either vehicle (0.9% w/v saline) or the compound under study at doses 0.01mmol/kg intrarectally via a polyethylene cannula (fitted to a 1 mL syringe) with the tip inserted approximately 8 cm into the anus. Following 30 min pretreatment, 1 ml of 4% acetic acid was introduced into the colon intrarectally and, after exposure for 60 s, the excess fluid was withdrawn. The luminal content was then expelled by instillation of air (10 mL), the ligature was removed and the abdomen was sutured. Both groups of rats were allowed to recover with food and water and the resulting injury was assessed after 48 h. The experiment was conducted using two groups, each containing 3 animals.
Assessment of colonic damage. Rats were weighed, inspected for the presence of diarrhea and sacrificed using diethyl ether. The colons were excised and opened longitudinally, rinsed with cold saline, pinned out and observed under a dissecting microscope. Colonic damage was scored using the system of MacPherson and Pfeiffer: 0 – normal appearance, 1- hyperaemia, 2 – patchy petechial bleeding, 3 – diffuse petechial bleeding, 4 – partial exfoliated mucosa or single erosion or ulceration, 5 – diffuse exfoliated mucosa or multiple erosions or ulceration. The presence or absence of adhesions between the colon and the surrounding tissues was recorded. Scoring of the colonic damage (Table 4) was carried out by an observer unaware of the treatment.

[2] = Competition with DMSO for hydroxyl radicals; conditions: compound at 100 µM, Fe3+/ascorbic acid, DMSO 33 mM
Description: Competition of the novel pteridine derivatives with dimethyl sulfoxide for hydroxyl radicals was measured. […] The majority of the derivatives were excellent scavengers of hydroxyl radicals with activity higher than the reference compound 6-hydroxy-2,5,7,8-tetramethylchroman-2-carboxylic acid (Trolox).
Competition of pteridine derivatives with DMSO for hydroxyl radicals
Hydroxyl radicals generated by the Fe^3+/ascorbic acid system were detected by determination of formaldehyde produced from the oxidation of DMSO, according to the procedure of Nash. The reaction mixture comprised ethylenediaminetetracetic acid (EDTA) (0.1 mM), Fe^3+ (167 μM), DMSO (33 mM) in phosphate buffer (50 mM, pH 7.4), ascorbic acid (10 mM) and the compound to be tested at 100 µM. After incubation at 37 °C for 30 min the mixture was quenched with aqueous trichloroacetic acid (17% w/v) (Table 2) and the percentage competition of the tested compounds with DMSO for hydroxyl radicals was determined (Table 2).

[3] = Inhibition of linoleic acid peroxidation (AAPH); conditions: linoleic acid peroxidation initiated by AAPH, 37 °C, pH 7.4
Text: Azo compounds that generate free radicals through spontaneous thermal decomposition are useful for in vitro studies of free radical production. The water-soluble AAPH has been extensively used as a clean and controllable source of thermally produced alkylperoxyl free radicals. […] Evidently, the presence of 6,7-dimethyl groups on the pteridine ring greatly enhances protection against lipid peroxidation; the nature of the alkyl group and ring size on the 2-substituent has some, but much less, effect. […] The role of lipophilicity (as assessed from calculated clogP values; Table 1) is not clear, but substituent bulk plays a significant role.
Inhibition of linoleic acid peroxidation
Production of conjugated diene hydroperoxide by oxidation of linoleic acid in an aqueous dispersion was monitored at 234 nm. 2,2’-Azobis(2-amidinopropane) dihydrochloride (AAPH) was used as a free radical initiator. This assay was used to follow oxidative changes and to determine the inhibition of the peroxidation of sodium linoleate by each tested compound. A dispersion of sodium linoleate (16 mM, 10 μL) was added to the UV cuvette containing phosphate buffer (0.05 M, 0.93 mL) at pH 7.4 and kept in a thermostat at 37 °C. The oxidation reaction was initiated at 37 °C under air by the addition of AAPH solution (40 mM, 50 μL). Oxidation was carried out in the presence of aliquots (10 μL) of the tested compound. In the assay without antioxidant, lipid oxidation was measured in the presence of DMSO (10 μL). The rate of oxidation at 37 °C was monitored by recording the increase in absorption at 234 nm caused by conjugated diene hydroperoxide formation (Table 2).
IC50 determinations. OriginPro 8 was used to determine IC50 values from the sigmoidal line fitted to a graph of log[concentration] against the average percentage inhibition from two independent experiments, with at least 6 different concentrations. The SEM is the calculated standard error in the IC50 value of the fitted line.

IC50 [3]: 100 ± 1.5 µM
SMILES: CN1CCN(c2nc(NCc3cccs3)c3nccnc3n2)CC1 [Compound 18f, 2-(4-methylpiperazin-1-yl)-N-(thiophen-2-ylmethyl)pteridin-4-amine]
Change in body weight (%) ([1]; assessed after 48 h): -10.7%
Score (levels 0–5) ([1]; colonic damage score, 48 h): All rats exhibited partial to diffuse exfoliated mucosa or single/multiple erosion or ulceration (4–5)
Hydroxyl radicals scavenged (%) [2]: 96%
